From ChEMBL document CHEMBL1201862, “PubChem BioAssay data set” (2004)
Active and inactive are the calls of the source.

Experiments:
[1] = molecular target: Luciferin 4-monooxygenase (Photinus pyralis, UniProt P08659); experiment: firefly luciferase enzyme inhibitors, dose response, biochemical, luminescence (AID 1891)
[2] = Luminescence Cell-Based Dose Confirmation HTS to Identify Inhibitors of Platelet Dense Granule Release. [Related pubchem assays: 1663 (Primary HTS), 1678 (Summary of Project)]; assay type: functional
[3] = molecular target: 1-phosphatidylinositol 4,5-bisphosphate phosphodiesterase gamma-1 (Homo sapiens, UniProt P19174); experiment: Counterscreen for inhibitors of phospholipase C isozymes (PLC-B3): Fluorescence-based biochemical high throughput dose response assay to identify inhibitors of phospholipase C isozymes (PLC-gamma1).
Chain of 1-phosphatidylinositol 4,5-bisphosphate phosphodiesterase gamma-1 (P19174 whole entry): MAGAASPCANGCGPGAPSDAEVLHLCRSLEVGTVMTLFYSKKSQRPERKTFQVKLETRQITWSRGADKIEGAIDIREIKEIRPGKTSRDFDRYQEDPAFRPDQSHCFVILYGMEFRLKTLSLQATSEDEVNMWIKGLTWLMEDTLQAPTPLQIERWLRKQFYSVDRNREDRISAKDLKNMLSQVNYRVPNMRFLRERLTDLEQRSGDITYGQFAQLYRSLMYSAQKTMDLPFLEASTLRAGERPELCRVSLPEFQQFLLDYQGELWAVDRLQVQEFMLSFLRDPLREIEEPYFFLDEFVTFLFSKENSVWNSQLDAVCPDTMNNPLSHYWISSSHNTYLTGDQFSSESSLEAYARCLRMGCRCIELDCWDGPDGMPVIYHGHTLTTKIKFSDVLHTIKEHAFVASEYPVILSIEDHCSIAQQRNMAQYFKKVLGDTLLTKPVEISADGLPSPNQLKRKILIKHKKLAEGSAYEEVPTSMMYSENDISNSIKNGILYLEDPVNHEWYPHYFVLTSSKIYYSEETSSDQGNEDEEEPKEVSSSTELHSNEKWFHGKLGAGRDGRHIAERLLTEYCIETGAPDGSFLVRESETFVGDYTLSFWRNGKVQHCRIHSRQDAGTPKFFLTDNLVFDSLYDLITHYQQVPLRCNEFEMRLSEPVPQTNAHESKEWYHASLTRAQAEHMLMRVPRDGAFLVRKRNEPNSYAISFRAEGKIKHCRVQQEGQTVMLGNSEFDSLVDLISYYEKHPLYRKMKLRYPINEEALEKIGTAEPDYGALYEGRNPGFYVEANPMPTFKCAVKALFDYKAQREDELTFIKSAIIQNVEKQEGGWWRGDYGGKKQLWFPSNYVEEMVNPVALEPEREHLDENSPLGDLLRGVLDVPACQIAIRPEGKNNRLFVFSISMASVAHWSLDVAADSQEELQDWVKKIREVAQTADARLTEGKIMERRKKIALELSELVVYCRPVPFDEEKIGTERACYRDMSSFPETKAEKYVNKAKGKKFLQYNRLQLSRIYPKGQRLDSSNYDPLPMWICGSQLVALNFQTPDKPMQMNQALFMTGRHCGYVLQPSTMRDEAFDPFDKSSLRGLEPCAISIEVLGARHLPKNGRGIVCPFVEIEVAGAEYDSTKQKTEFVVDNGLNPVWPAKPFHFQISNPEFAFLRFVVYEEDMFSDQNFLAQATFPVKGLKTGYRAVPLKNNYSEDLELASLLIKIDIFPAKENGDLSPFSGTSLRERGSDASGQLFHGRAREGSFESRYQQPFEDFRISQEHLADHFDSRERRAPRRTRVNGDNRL

[4] = molecular target: 1-phosphatidylinositol 4,5-bisphosphate phosphodiesterase beta-3 (Homo sapiens, UniProt Q01970); experiment: Fluorescence-based biochemical high throughput dose response assay to identify inhibitors of phospholipase C isozymes (PLC-B3).
Chain of 1-phosphatidylinositol 4,5-bisphosphate phosphodiesterase beta-3 (Q01970 whole entry): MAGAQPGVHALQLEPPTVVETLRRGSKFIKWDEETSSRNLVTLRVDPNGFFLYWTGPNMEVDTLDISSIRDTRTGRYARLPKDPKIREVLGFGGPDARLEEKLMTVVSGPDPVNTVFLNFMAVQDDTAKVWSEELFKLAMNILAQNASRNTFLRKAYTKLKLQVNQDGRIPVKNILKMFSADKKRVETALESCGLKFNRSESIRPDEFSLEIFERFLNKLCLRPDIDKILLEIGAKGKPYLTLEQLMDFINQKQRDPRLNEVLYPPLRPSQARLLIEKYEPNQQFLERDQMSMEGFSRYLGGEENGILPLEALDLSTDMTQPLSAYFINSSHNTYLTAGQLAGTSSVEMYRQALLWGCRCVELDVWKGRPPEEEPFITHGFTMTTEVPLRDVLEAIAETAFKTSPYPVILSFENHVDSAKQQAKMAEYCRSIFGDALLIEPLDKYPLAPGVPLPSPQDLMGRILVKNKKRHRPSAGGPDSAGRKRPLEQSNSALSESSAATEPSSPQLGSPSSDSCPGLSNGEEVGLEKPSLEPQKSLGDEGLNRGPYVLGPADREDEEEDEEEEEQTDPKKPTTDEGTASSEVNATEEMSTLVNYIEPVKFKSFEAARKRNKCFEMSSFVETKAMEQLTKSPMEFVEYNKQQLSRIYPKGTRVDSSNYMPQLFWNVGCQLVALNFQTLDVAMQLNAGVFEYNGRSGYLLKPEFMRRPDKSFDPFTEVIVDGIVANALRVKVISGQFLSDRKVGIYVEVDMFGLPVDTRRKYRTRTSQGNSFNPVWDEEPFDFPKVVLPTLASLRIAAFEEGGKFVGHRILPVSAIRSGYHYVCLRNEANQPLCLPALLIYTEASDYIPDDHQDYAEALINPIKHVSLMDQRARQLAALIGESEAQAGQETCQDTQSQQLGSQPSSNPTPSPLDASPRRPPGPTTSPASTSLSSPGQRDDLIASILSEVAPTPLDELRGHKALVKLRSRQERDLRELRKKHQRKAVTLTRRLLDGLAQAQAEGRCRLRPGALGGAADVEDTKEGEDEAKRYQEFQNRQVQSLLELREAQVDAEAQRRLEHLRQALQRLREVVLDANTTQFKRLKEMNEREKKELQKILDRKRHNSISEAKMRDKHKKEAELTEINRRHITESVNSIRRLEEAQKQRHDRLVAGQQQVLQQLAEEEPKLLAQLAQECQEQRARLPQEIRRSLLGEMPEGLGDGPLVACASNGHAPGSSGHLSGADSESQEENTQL

[5] = molecular target: T1, Caspase-3 (Homo sapiens, UniProt P42574); assay type: functional;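 also: Dose-response selectivity test against caspase-3 for candidate inhibitors of sentrin-specific proteases (SENPs)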
T1 sequence (P42574 whole entry): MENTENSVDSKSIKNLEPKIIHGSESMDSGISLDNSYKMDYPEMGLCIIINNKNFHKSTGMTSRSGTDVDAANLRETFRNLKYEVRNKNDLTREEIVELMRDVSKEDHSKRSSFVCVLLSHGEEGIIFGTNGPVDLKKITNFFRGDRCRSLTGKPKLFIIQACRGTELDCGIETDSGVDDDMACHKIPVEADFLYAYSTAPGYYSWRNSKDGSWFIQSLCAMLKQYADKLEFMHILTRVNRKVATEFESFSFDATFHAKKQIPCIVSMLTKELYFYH

[6] = molecular target: T2, Sentrin-specific protease 7 (Homo sapiens, UniProt Q9BQF6); assay type: functional;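 also: Luminescence-based dose-response confirmation of ultra-high-throughput screening hits, measuring inhibition of SENP7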
T2 sequence (Q9BQF6 whole entry): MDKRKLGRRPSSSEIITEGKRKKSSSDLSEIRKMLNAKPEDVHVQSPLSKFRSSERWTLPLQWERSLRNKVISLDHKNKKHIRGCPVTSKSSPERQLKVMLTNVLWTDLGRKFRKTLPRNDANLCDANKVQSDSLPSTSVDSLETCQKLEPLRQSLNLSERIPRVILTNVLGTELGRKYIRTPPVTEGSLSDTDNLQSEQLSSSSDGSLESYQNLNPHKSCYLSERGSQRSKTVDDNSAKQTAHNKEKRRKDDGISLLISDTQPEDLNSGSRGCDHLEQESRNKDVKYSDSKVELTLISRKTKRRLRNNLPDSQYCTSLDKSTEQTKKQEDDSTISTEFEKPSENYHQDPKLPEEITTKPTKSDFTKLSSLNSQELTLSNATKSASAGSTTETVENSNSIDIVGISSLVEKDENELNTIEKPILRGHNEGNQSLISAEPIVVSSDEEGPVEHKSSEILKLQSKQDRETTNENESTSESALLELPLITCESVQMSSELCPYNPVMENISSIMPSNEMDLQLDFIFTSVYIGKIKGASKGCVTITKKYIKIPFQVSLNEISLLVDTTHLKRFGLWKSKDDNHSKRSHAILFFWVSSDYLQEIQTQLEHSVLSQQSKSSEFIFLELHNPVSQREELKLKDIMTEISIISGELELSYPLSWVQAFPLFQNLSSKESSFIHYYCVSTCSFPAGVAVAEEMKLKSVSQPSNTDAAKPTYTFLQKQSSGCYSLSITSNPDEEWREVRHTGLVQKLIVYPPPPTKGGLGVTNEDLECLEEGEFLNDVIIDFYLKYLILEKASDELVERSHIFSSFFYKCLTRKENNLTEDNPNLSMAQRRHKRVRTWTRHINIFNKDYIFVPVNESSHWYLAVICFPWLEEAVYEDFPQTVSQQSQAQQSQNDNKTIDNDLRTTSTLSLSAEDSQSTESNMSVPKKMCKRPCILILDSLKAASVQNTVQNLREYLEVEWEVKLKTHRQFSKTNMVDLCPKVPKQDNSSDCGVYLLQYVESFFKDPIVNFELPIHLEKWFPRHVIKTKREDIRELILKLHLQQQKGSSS

[7] = molecular target: T3, Sentrin-specific protease 6 (Homo sapiens, UniProt Q9GZR1); assay type: functional;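 also: Luminescence-based dose-response confirmatory assay of SENP6 inhibition, following up an ultra-high-throughput screen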
T3 sequence (Q9GZR1 whole entry): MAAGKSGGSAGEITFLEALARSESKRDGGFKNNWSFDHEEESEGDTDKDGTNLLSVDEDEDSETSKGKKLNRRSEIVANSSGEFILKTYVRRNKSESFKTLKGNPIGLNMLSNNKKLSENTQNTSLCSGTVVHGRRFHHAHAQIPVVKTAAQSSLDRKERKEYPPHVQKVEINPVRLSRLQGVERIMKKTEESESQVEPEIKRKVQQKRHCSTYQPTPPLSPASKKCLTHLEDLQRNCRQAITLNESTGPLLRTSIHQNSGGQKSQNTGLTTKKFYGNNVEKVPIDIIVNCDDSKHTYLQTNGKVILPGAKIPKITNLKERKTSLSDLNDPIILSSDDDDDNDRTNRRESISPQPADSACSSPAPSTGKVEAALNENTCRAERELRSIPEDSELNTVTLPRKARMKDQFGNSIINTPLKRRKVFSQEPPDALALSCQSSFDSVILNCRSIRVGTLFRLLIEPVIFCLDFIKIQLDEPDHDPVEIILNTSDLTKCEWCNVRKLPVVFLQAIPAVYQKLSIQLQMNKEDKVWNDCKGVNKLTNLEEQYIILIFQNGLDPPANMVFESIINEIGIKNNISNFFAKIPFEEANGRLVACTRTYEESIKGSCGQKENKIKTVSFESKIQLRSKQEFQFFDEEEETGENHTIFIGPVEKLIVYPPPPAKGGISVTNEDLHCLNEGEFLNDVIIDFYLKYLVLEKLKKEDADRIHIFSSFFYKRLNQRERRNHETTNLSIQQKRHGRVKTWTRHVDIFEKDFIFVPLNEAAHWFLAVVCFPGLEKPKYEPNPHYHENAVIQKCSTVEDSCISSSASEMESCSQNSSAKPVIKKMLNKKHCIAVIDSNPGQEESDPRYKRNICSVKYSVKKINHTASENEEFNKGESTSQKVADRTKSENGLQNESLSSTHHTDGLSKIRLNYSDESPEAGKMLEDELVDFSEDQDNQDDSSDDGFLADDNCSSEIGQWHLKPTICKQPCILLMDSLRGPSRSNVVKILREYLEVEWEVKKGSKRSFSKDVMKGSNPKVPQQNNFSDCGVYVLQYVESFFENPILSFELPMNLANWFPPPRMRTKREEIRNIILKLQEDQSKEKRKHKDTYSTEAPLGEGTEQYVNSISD

[8] = molecular target: T4, Sentrin-specific protease 8 (Homo sapiens, UniProt Q96LD8); assay type: functional;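 also: luminescence read-out of SENP8 inhibition, dose-response confirmation following an ultra-high-throughput screen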
T4 sequence (Q96LD8 whole entry): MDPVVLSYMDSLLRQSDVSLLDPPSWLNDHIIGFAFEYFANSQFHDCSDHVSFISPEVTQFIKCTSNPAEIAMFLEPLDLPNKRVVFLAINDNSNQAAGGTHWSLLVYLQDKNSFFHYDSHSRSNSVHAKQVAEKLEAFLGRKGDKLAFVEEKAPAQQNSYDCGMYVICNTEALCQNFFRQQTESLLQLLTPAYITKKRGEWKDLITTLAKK

[9] = Luminescence-based cell-based high throughput dose response assay to identify activators of the DAF-12 from the parasite S. stercoralis (ssDAF-12).; assay type: functional
[10] = molecular target: T5, Oxysterols receptor LXR-beta (Homo sapiens, UniProt P55055); experiment: LXR agonists, Gal4 luciferase reporter, dose response, counter-screen for ssDAF-12 agonist project, cell-based, luminescence, HEK293, S. stercoralis campaign (AID 720737); assay type: functional; details: read-out: IC50 (the source's name)
T5 sequence (P55055 whole entry): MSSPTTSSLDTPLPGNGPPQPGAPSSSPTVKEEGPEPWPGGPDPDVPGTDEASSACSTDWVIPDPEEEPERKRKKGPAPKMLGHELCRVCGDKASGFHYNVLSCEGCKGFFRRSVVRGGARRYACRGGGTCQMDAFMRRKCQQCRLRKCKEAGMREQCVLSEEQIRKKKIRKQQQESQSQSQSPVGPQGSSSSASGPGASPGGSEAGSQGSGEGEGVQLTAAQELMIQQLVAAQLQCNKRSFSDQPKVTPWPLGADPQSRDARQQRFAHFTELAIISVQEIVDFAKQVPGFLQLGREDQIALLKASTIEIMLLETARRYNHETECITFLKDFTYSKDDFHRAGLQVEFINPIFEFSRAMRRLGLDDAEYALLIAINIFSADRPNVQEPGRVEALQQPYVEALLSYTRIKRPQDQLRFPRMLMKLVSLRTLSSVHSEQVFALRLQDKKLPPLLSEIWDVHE

[11] = molecular target: T5, Oxysterols receptor LXR-beta; assay type: functional, cell-based
[12] = molecular target: Kallikrein-7 (Homo sapiens, UniProt P49862); experiment: Fluorescence Intensity-based biochemical primary high throughput dose response assay to identify activators of kallikrein-7 (K7) zymogen.
Chain of Kallikrein-7 (P49862 whole entry): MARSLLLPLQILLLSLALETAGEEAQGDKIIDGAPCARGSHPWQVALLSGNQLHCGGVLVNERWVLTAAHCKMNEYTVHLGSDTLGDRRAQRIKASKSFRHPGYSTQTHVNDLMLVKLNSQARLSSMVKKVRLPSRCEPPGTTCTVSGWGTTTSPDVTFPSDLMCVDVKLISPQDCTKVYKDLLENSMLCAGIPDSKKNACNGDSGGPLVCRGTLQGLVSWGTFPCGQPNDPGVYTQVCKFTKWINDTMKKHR

[13] = Luminescence Cell-Based Dose Confirmation HTS to Identify Activators of 5'UTR Stem-Loop Driven Alpha-Synuclein mRNA Translation in H4 Neuroglioblastoma Cells. [Related pubchem assays: 1829 (Project Summary), 1814 (Primary HTS)]; assay type: functional
[14] = Luminescence Cell-Based Dose Response HTS to Identify Activators of Luciferase Translation or Activity in H4 […] Cells. [Related pubchem assays: 1829 (Project Summary), 1814 (Primary HTS)]; assay type: functional
[15] = system: H4; experiment: Luminescence Cell-Based Dose Response HTS to Identify Activators of 5'UTR Stem-Loop Driven Prion Protein mRNA Translation in H4 Neuroglioblastoma Cells. [Related pubchem assays: 1829 (Project Summary), 1814 (Primary HTS)]; assay type: functional; details: Homo sapiens
[16] = system: Vero; experiment: Vero cell cytotoxicity, cytotoxicity control for flavivirus capping enzyme inhibitors (AID 588742); assay type: functional; details: Chlorocebus sabaeus
[17] = Artemis endonuclease inhibitor potency, dose response, biochemical, fluorescence intensity (AID 720701); assay type: functional;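 also: Artemis endonuclease enzyme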
[18] = inhibitors of non-replicating M. tuberculosis, dose response, luciferase, dry powder (AID 651619); assay type: functional; details: Mycobacterium tuberculosis
[19] = inhibitors of non-replicating M. tuberculosis, dose response, luciferase, dry powder (AID 651620); assay type: functional; details: Mycobacterium tuberculosis
[20] = growth inhibition of replicating M. tuberculosis, dose response, counter-screen, dry powder, IC90 (AID 651617); assay type: functional; details: Mycobacterium tuberculosis
[21] = HeLa cell cytotoxicity, dose response, cytotoxicity control, 24 h, plate reader, powder samples, set 3 (AID 651864); assay type: functional, cell-based
[22] = TRPM1 promoter luciferase reporter signal decrease, dose response, MITF inhibitor project, cell-based, SK-MEL-5, dry powder, set 9 (AID 651588); assay type: functional
[23] = MITF Orthogonal Assay: MALME3 CTG Assay Measured in Cell-Based System Using Plate Reader - 2084-04_Inhibitor_Dose_DryPowder_Activity_Set6.; assay type: functional; details: MALME-3
[24] = SK-MEL-5 parental cell viability reduction, dose response, orthogonal assay for MITF inhibitor project, CellTiter-Glo luminescence, dry powder, set 8 (AID 651586); assay type: functional, cell-based
[25] = MALME3 melanoma cell viability reduction, dose response, orthogonal assay for MITF inhibitor project, CellTiter-Glo luminescence, dry powder, set 5 (AID 651584); assay type: functional, cell-based; details: MALME-3
[26] = MITF Orthogonal Assay: SK-MEL-5 CTG Assay Measured in Cell-Based System Using Plate Reader - 2084-02_Inhibitor_Dose_DryPowder_Activity_Set7.; assay type: functional
[27] = MITF: Counter assay: A375 proliferation Measured in Cell-Based System Using Plate Reader - 2084-03_Inhibitor_Dose_DryPowder_Activity_Set8.; assay type: functional; details: A-375
[28] = A375 melanoma cell viability loss, dose response, counter-screen for MITF modulator project, CellTiter-Glo luminescence, dry powder, set 9 (AID 651591); assay type: functional, cell-based; details: A-375
[29] = TRPM1 promoter luciferase reporter signal decrease, dose response, MITF inhibitor project, cell-based, SK-MEL-5, dry powder, set 8 (AID 624430); assay type: functional
[30] = cytotoxicity in primary human melanocytes, dose response, cytotoxicity control, cell-based, plate reader, dry powder (AID 651920); assay type: functional
[31] = HIV Env cell-cell fusion inhibitors, dose response, HIV entry, plate reader, dry powder (AID 687023); assay type: functional, cell-based
[32] = CEM21 cell cytotoxicity, dose response, cytotoxicity control, plate reader, dry powder (AID 687026); assay type: functional, cell-based

Chain of Luciferin 4-monooxygenase (P08659 whole entry): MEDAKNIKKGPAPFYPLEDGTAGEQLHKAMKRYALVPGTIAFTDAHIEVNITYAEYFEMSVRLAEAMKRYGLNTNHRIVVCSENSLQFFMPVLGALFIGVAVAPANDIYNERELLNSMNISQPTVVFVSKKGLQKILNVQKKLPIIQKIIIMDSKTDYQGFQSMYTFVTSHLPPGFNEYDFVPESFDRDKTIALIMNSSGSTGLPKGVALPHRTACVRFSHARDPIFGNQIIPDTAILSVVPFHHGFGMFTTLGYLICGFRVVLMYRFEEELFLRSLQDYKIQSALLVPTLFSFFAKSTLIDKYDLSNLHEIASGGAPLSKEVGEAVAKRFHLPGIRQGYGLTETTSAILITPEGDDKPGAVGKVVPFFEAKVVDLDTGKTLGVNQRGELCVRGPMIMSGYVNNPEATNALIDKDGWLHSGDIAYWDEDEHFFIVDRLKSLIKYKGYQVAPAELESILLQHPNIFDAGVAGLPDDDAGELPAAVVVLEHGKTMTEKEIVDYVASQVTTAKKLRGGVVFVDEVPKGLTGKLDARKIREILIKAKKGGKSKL

Nc1ncnc2c1ncn2[C@@H]1O[C@H](COP(=O)(O)O)[C@@H](O)[C@H]1O
EC50 [1]: 1.48 µM (active)
EC50 [2]: 1.13 µM (active)
IC50 [3]: 13.2 µM (inactive)
IC50 [4]: > 122 µM (inactive)

Cc1csc(NC(=O)c2ccc3ccccc3n2)n1
IC50 [5]: 6.96 µM (active)
IC50 [6]: 5.25 µM (active)
IC50 [7]: 11 µM (active)
IC50 [8]: 16.2 µM (active)
IC50 [9]: > 67.6 µM (inactive)
EC50 [10]: > 67.6 µM (inactive)
EC50 [11]: > 67.6 µM (inactive)

CC1(C)CC(=O)C2=C(C1)c1c(ccc3ccccc13)NC2c1ccc(OCC(=O)O)cc1 (configuration not stated)
EC50 [12]: > 69.5 µM (inactive)

O=C(Nc1ccc2oc(-c3cccc4ccccc34)nc2c1)c1nc[nH]n1
EC50 [13]: 0.627 µM (active)
EC50 [14]: 15.8 µM (active)
EC50 [15]: 5.42 µM (active)
CC50 [16]: > 40 µM (active)
IC50 [17]: 7.47 µM (active)

c1ccc(-c2nnc(SCc3ccncc3)o2)cc1
IC90 [18]: 31 µM (active)
IC90 [19]: 31 µM (active)
IC90 [20]: 250 µM (active)

CCc1ccccc1NCc1ccc(N2CCCC2)cc1
AC50 [21]: 149 µM (active)

O=C1C=C(Nc2ccc([N+](=O)[O-])c(C(F)(F)F)c2)C(=O)c2ccccc21
AC50 [22]: 15.3 µM (active)
AC50 [23]: 27.7 µM (active)
AC50 [24]: 36.1 µM (active)
AC50 [25]: 27.7 µM (active)
AC50 [26]: 1.06 µM (active)
AC50 [27]: > 70 µM (inactive)
AC50 [28]: > 70 µM (inactive)
AC50 [29]: 5.19 µM (active)
AC50 [30]: 8.56 µM (active)

Cc1noc(C)c1S(=O)(=O)Nc1cccc2c1O[C@@H](CN(C)Cc1ccc(C(F)(F)F)cc1)[C@@H](C)CN([C@H](C)CO)C2=O
AC50 [31]: 18.6 µM (active)
AC50 [32]: > 70 µM (inactive)
